This passage reports TGI and GI50 results from PubChem BioAssay (NCI).

“And” between values parts separate entries of the source, which are not always exact repeats. Identical values can stand only once.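 Cells were grown in 96-well plates and exposed to each compound for 48 hours at five concentrations; endpoints were interpolated linearly between bracketing concentrations, or set to the highest concentration if not reached. GI50 = concentration required for 50% inhibition of growth. TGI marks complete inhibition of growth.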

Among the test systems are MDA-MB-231 breast; SNB-19 CNS; OVCAR-5 ovarian; CCRF-CEM leukemia; OVCAR-8 ovarian; SK-MEL-28 melanoma; SF-268 CNS; SNB-75 CNS; KM12 colon; DU-145 prostate.
What all share (assay): growth of human tumour cells (NCI), 48 h

Take `CCc1ccc(/C=C\c2cc(OC)c(OC)c(OC)c2)cc1`: the TGI is 0.25 µM in the assay with MDA-MB-231 breast; > 100 µM with OVCAR-5 ovarian; 0.581 µM in the assay on OVCAR-8 ovarian; > 100 µM in the assay with SK-MEL-28 melanoma; 46.9 µM in the assay on SF-268 CNS; > 100 µM with SNB-75 CNS. The GI50 with SNB-19 CNS was 0.0176 µM; with OVCAR-5 ovarian it was 16.7 µM; with CCRF-CEM leukemia it was 0.0274 µM; in the assay on SK-MEL-28 melanoma, 0.0395 µM; in the assay with SF-268 CNS, 0.06 µM; in the assay on SNB-75 CNS, 0.0261 µM.
As for `CC1=CC(=Nc2ccc(N(CCCl)CCCl)cc2)C=C(C)C1=O`, the GI50 in the assay with MDA-MB-231 breast is 2.85 µM; in the assay with SNB-19 CNS, 2.81 µM; in the assay on OVCAR-5 ovarian, 2.72 µM; in the assay on KM12 colon it was 2.64 µM; in the assay on CCRF-CEM leukemia, 0.187 µM; with DU-145 prostate it was 0.374 µM. For the same compound, the GI50 was 2.48 µM in the assay on SK-MEL-28 melanoma, 0.409 µM in the assay on SF-268 CNS and 1 µM in the assay on SNB-75 CNS. Besides, the TGI in the assay on MDA-MB-231 breast is 9.32 µM; with SNB-19 CNS, > 65.8 µM; in the assay with OVCAR-5 ovarian, 11.3 µM; in the assay on KM12 colon, 11.3 µM; in the assay with CCRF-CEM leukemia it was 5.21 µM; in the assay on DU-145 prostate, 4.57 µM. Also, the TGI in the assay with SK-MEL-28 melanoma turned out to be 10.1 µM; with SF-268 CNS, 2.85 µM; with SNB-75 CNS, 7.87 µM.
Turning to `CC1(C)OC2[C@@H](CNC(=O)NC(=O)NC(=O)CI)O[C@@H](n3cnc4c(NC(=O)Nc5ccccc5)ncnc43)[C@H]2O1` (some centres not stated), the GI50 was 9.42 µM in the assay with MDA-MB-231 breast; 27.1 µM in the assay on SNB-19 CNS; 8.74 µM with OVCAR-5 ovarian; 15.8 µM in the assay with KM12 colon; 14.5 µM in the assay on DU-145 prostate; 9.45 µM with OVCAR-8 ovarian. The GI50 in the assay on SK-MEL-28 melanoma was 8.53 µM; with SF-268 CNS, 8.22 µM; in the assay on SNB-75 CNS it was 6.62 µM. The TGI in the assay on MDA-MB-231 breast was 19.4 µM; in the assay with SNB-19 CNS, > 50 µM; with OVCAR-5 ovarian it was 18 µM; in the assay with KM12 colon it was > 50 µM; in the assay with DU-145 prostate, > 50 µM; in the assay with OVCAR-8 ovarian it was 22.7 µM. Also, the TGI in the assay on SK-MEL-28 melanoma was 16 µM; with SF-268 CNS it was 17.1 µM; in the assay with SNB-75 CNS, 13.3 µM.
Consider `COC1/C=C\C=C(/C)C(=O)NC2=CC(=O)C(=O)C(=C2O)CC(C)CC(OC)C(O)C(C)/C=C(\C)C1OC(N)=O` (configuration not stated), for which the TGI is 4.22 µM with MDA-MB-231 breast; > 100 µM in the assay with SNB-19 CNS; > 100 µM in the assay on OVCAR-5 ovarian; 5.57 µM with KM12 colon; 25.8 µM in the assay with CCRF-CEM leukemia; 35.5 µM in the assay with DU-145 prostate. The values for the TGI with OVCAR-8 ovarian, in the assay with SK-MEL-28 melanoma and in the assay with SF-268 CNS were > 52.4 µM, > 49.3 µM and > 58.9 µM, respectively.
As to `CCN(CC)CCOc1ccc(/C(=C(\Cl)c2ccccc2)c2ccccc2)cc1`, the GI50 with MDA-MB-231 breast is 1.37 µM and 2.13 µM; in the assay on SNB-19 CNS it was 5.41 µM and 2.25 µM; in the assay with OVCAR-5 ovarian, 3.42 µM and 3.33 µM; with KM12 colon it was 2.1 µM and 1.87 µM; in the assay on DU-145 prostate, 6.79 µM and 5.62 µM; with OVCAR-8 ovarian, 7 µM and 4.65 µM. In addition, the GI50 in the assay with SK-MEL-28 melanoma was 1.07 µM and 1.79 µM; in the assay on SF-268 CNS, 5.47 µM and 4.78 µM; in the assay with SNB-75 CNS, 2.19 µM and 1.39 µM. The TGI with MDA-MB-231 breast was 5.16 µM and 4.49 µM; in the assay with SNB-19 CNS, 11.9 µM and 5.41 µM; in the assay on OVCAR-5 ovarian, 9.95 µM and 15.2 µM; in the assay with KM12 colon, 7.2 µM and 4.08 µM; in the assay with DU-145 prostate it was 13.3 µM and 19.2 µM; with OVCAR-8 ovarian it was 14.3 µM and 18.6 µM. Besides, the TGI in the assay with SK-MEL-28 melanoma was 2.21 µM and 3.47 µM; with SF-268 CNS, 11.9 µM and 19.2 µM; in the assay on SNB-75 CNS it was 8.5 µM and 4.95 µM.
For `C=CCCCCCCCCC(=O)[O][Sn]([CH2]CCC)([CH2]CCC)[CH2]CCC`, the GI50 with MDA-MB-231 breast is 0.14 µM; in the assay with SNB-19 CNS, 0.198 µM; with OVCAR-5 ovarian, 0.128 µM; with KM12 colon, 0.145 µM; with DU-145 prostate, 0.15 µM; in the assay on SK-MEL-28 melanoma, 0.157 µM. Moreover, the GI50 in the assay with SF-268 CNS is 0.149 µM; in the assay on SNB-75 CNS, 0.134 µM. In addition, the TGI with MDA-MB-231 breast came to 0.304 µM; with SNB-19 CNS it was 0.384 µM; in the assay with OVCAR-5 ovarian, 0.297 µM; in the assay on KM12 colon it was 0.3 µM; with DU-145 prostate, 0.29 µM; with SK-MEL-28 melanoma, 0.296 µM. The figures for the TGI in the assay with SF-268 CNS and in the assay on SNB-75 CNS were 0.309 µM and 0.326 µM, respectively.
Turning to `Nc1cc(N)c2nc(-c3ccccc3)c(Nc3ccc(Cl)c(Cl)c3)nc2c1`, the GI50 was 5.72 µM in the assay on MDA-MB-231 breast; 12.9 µM with SNB-19 CNS; 28 µM in the assay with OVCAR-5 ovarian; 5.89 µM with KM12 colon; 16.7 µM in the assay with DU-145 prostate; 5.18 µM in the assay with OVCAR-8 ovarian. Moreover, the GI50 with SK-MEL-28 melanoma is 16.1 µM; in the assay on SF-268 CNS it was 12 µM. In addition, the TGI in the assay on MDA-MB-231 breast was found to be 27.8 µM; in the assay with SNB-19 CNS it was 30.2 µM; with OVCAR-5 ovarian, 48.7 µM; in the assay with KM12 colon, 24.6 µM; in the assay on DU-145 prostate, 32.6 µM; with OVCAR-8 ovarian, 79.8 µM. Further, the TGI is 44.2 µM with SK-MEL-28 melanoma and 28.6 µM with SF-268 CNS.
In the case of `CCC(C)c1c(Cl)nc(Cl)nc1Cl` (configuration not stated), the TGI was 30.7 µM in the assay with SNB-19 CNS; 33.2 µM in the assay on OVCAR-5 ovarian; 10.6 µM in the assay with KM12 colon; > 100 µM with CCRF-CEM leukemia; 30.4 µM in the assay with DU-145 prostate; 38.3 µM in the assay on OVCAR-8 ovarian. The TGI was 22.5 µM in the assay on SK-MEL-28 melanoma, > 100 µM in the assay with SF-268 CNS and 26.8 µM in the assay with SNB-75 CNS.
As for `CC(C)(CC(=O)Nc1ccccc1)C(=O)O`, the TGI in the assay with MDA-MB-231 breast, in the assay with SNB-19 CNS, in the assay on OVCAR-5 ovarian, in the assay on KM12 colon, in the assay with CCRF-CEM leukemia and in the assay on DU-145 prostate was > 100 µM throughout. Besides, the TGI with OVCAR-8 ovarian and in the assay on SK-MEL-28 melanoma was > 100 µM each time.
On to `COc1ccc(/C(COc2c(-c3ccccc3)oc3ccccc3c2=O)=N\O)cc1`, for which the GI50 is 18.3 µM with MDA-MB-231 breast; 17.5 µM with SNB-19 CNS; 9.46 µM in the assay on KM12 colon; 37 µM in the assay on CCRF-CEM leukemia; 22 µM with DU-145 prostate; 47.6 µM in the assay with OVCAR-8 ovarian. Besides, the GI50 in the assay with SK-MEL-28 melanoma was 15 µM; in the assay on SF-268 CNS it was 13.4 µM; in the assay on SNB-75 CNS, 22.2 µM. Further, the TGI with MDA-MB-231 breast is > 50 µM; with SNB-19 CNS, > 50 µM; in the assay with KM12 colon it was 23.4 µM; in the assay with CCRF-CEM leukemia, > 50 µM; in the assay on DU-145 prostate, > 50 µM; with OVCAR-8 ovarian, > 50 µM. For the same compound, the TGI was > 50 µM in the assay on SK-MEL-28 melanoma, 41 µM with SF-268 CNS and > 50 µM in the assay on SNB-75 CNS.
